B1: PRL: 25 kDa hormone produced by the anterior pituitary (protein, UniProt P01236 29-227, looked up)
Prolactin: LPICPGGAARCQVTLRDLFDRAVVLSHYIHNLSSEMFSEFDKRYTHGRGFITKAINSCHTSSLATPEDKEQAQQMNQKDFLSLIVSILRSWNEPLYHLVTEVRGMQEAPEAILSKAVEIEEQTKRLLEGMELIVSQVHPETKENEIYPVWSGLPSLQMADEESRLSAYYNLLHCLRRDSHKIDNYLKLLKCRIIHNNNC

Columns and labels:
[1] = system: MDA-MB-468 breast cancer cells; experiment: PRL-induced invasion of breast cancer cells, Boyden chambers; format: cell-based; conditions: 1 μM
Procedure: (§1) FIG. 1A. Bar graph showing inhibition of PRL-induced invasion of breast cancer cells by SMI-1 and SMI-6; FIG. 1B. Bar graph showing only minimal cytotoxicity at indicated concentrations.
(§2) Both SMI-1 and SMI-6 at 1 μM concentrations abrogated PRL-induced invasion of MDA-MB-468 breast cancer cells, using Boyden chambers (FIG. 1A).

Jurkat human lymphocytes = experiment: Autocrine PRL-dependent BrdU uptake (cell proliferation) by flow cytometry; format: cell-based; conditions: for cell proliferation (BrdU uptake) driven by autocrine PRL: 1 μM SMI 24 hrs in 2% charcoal-stripped serum, then 1 nM PRL 24 hrs
Procedure: FIG. 2. Bar graph showing suppression of autocrine PRL-dependent BrdU uptake in Jurkat lymphocytes by […] of each SMI, as determined by flow cytometry; the top panel indicates percent of live cells.
To examine whether the SMIs can suppress cell proliferation that is driven by autocrine PRL, Jurkat human lymphocytes were utilized, which produce large amounts of autocrine PRL. Autocrine PRL in lymphocytes is well known to promote cell proliferation. The cells were incubated for 24 hrs in 2% charcoal-stripped serum (which is devoid on exogenous lactogenic hormones) with 1 μM of SMI-1 or SMI-6, and then with 1 nM PRL for 24 hrs. BrdU uptake was analyzed by flow cytometry.

[2] = system: postoperative thermal pain; experiment: Thermal nociception (heat hyperalgesia, paw withdrawal latency) after hind paw surgery; format: in vivo; conditions: female mice
Procedure: FIG. 3. […] Female mice were operated on the right hind paw. One day after surgery, 5 μg SMI-6 was applied either peripherally or centrally/spinally (5 μg or 25 μg) and mice were subjected to thermal nociception or mechanical allodynia (increased sensitization to tactile stimuli). […] SMI-6 at the 25 μg dose was effective in alleviating thermal pain by as much as 75%.

[3] = system: MDA-MB-468 breast cancer cells; experiment: LDH cytotoxicity assay; format: cell-based; conditions: especially at 10-fold higher doses
Procedure: as §1, §2

[4] = system: postoperative mechanical pain; experiment: Mechanical allodynia (anesthesiometer, withdrawal threshold) after hind paw surgery; format: in vivo; conditions: female mice, one day after surgery; 5 μg peripherally, 5 μg or 25 μg spinally
Procedure: FIG. 4. […] BL—baseline: POP—postoperative pain; SMI-6 was applied either peripherally ([…]), or spinally ([…]); each value is a mean±SME of 6 mice/treatment. Female mice were operated on the right hind paw. One day after surgery, 5 μg SMI-6 was applied either peripherally or centrally/spinally (5 μg or 25 μg) and mice were subjected to thermal nociception or mechanical allodynia (increased sensitization to tactile stimuli). […] SMI-6 at the 25 μg dose was effective in alleviating thermal pain by as much as 75%. For evaluating allodynia, an anesthesiometer was used, which applied a constant ramp of increasing mechanical pressure to the injured paw. […] was measured in grams.

Row | Molecule | PRL-induced invasion of MDA-MB-468 breast cancer cells [1] | cell proliferation (BrdU uptake) driven by autocrine PRL (Jurkat human lymphocytes) | alleviation of thermal pain ([2]; 25 μg dose) [%] | alleviation of thermal pain (leg withdrawal latency), dose dependence ([2]; one day after surgery, 5 μg peripherally, 5 μg or 25 μg spinally) | toxicity in LDH cytotoxicity assay [3] | abrogation of mechanical pain (allodynia, withdrawal threshold) [4] | effect of added PRL on BrdU uptake (Jurkat human lymphocytes; 1 nM PRL for 24 hrs)
1 | CCN(CC)c1ccc(/C=N/NC(=O)c2c(Cl)cnn2C)c(O)c1 [SMI-6] | abrogated | completely blocked | ≤ 75 | dose-dependent alleviation | minimal toxicity | equally as effective | 
2 | Cn1nc(Nc2ccc(Cl)cc2O)c(N)nc1=O [SMI-1] | abrogated | completely blocked |  |  | minimal toxicity |  | 
3 | B1 |  |  |  |  |  |  | no effect

Source: US11834423B2, “Small molecule prolactin receptor inhibitors, pharmaceutical compositions and treatment methods using such inhibitors” (University of Cincinnati, priority 2016, dated 2023)
